{"source": "patent US20230366875A1", "about": "“GPCR19-P2XN RECEPTOR COMPLEX AND USE THEREOF” (SEOUL NATIONAL UNIVERSITY R&DB FOUNDATION, priority 2020, published 2023)", "key": {"P2X7": {"biological_target": "P2X7 (Homo sapiens, UniProt Q99572)", "sequence (Q8TDU6 whole entry partner)": "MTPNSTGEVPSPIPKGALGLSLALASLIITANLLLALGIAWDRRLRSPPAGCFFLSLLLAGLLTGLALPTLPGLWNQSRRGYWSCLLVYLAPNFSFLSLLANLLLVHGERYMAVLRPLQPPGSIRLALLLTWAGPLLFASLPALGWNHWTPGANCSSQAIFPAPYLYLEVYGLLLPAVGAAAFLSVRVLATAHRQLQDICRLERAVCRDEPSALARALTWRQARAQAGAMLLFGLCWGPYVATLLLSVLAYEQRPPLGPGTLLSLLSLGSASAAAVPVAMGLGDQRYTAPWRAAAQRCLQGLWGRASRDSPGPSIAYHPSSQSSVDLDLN", "sequence (Q99572 whole entry)": "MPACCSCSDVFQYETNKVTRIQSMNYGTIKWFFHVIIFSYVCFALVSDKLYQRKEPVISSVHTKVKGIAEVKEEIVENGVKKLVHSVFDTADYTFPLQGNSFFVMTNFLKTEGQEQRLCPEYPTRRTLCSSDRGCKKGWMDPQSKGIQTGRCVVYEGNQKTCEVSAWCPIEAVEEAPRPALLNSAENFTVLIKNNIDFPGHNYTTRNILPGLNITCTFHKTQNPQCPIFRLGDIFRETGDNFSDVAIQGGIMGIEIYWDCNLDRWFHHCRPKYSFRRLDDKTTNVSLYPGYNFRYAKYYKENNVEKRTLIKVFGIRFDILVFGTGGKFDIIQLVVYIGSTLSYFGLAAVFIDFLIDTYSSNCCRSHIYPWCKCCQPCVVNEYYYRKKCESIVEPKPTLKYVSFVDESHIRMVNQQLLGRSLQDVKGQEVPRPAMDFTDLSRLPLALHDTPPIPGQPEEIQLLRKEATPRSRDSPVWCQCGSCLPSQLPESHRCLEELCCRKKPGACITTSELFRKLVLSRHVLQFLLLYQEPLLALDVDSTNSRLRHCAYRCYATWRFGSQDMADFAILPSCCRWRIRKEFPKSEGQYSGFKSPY", "assay": "Potassium ion channel assay in PMA-differentiated U937 cells", "conditions": "U937 cells differentiated by PMA (25 nM), BzATP (600 μM), HY209 (1 μM) 1 hour before BzATP", "quoted_text": "Specifically, U937 cells were used to investigate whether the activity of ion channel was changed by the regulation of GPCR19. U937 cells were differentiated by treatment with PMA (25 nM). After that, a fluorescent probe was added and the reaction was conducted for 1 hour. Thereafter, the cells were treated with BzATP (600 μM), and the cumulative fluorescence value was measured using an ELISA instrument to investigate whether the ion channel was activated."}, "IL-1β [1]": {"system": "IL-1β", "assay": "IL-1β ELISA of BMDM culture supernatant", "format": "cell-based, mouse", "conditions": "BMDM cells", "description": "The cells were treated with ATP (500 μm) or BzATP (300 μm) for an additional 1 hour before recovery of the culture supernatant of the sample. IL-1β concentration in the culture supernatant recovered was measured according to the manufacturer's procedure using the IL-1β ELISA kit (R & D Systems Minneapolis, MN, USA) (FIG. 4A).\nIL-1β concentration in the culture supernatant recovered was measured according to the manufacturer's procedure using the IL-1β ELISA kit (R & D Systems Minneapolis, MN, USA) (FIG. 4B)."}, "NLRP3 inflammasome [2]": {"system": "NLRP3 inflammasome", "assay": "Inflammasomal components in BMDM cells (immunostaining)", "format": "cell-based, mouse", "conditions": "LPS (10 ng/ml)+HY209 (400 ng/ml) 1 hour, BzATP (300 μm) 1 hour", "description": "(§1) After that, in order to stain inflammasomal components, the cells were stained with anti-NLRP3 conjugated antibody (Abeam, Cambridge, UK) and anti-ASC Ab (Clone B-3, Santa Cruz Biotechnology, Inc. Dallas, Texas, USA) at 4° C. overnight, and then with Alexa Fluor 488-labeled or Alexa Fluor 532-labeled secondary conjugated antibody (Invitrogen, Carlsbad, CA, USA)."}, "P2X7 receptor [3]": {"system": "P2X7 receptor", "assay": "Ca++ mobilization by P2X7 receptor in keratinocytes", "format": "cell-based, human", "conditions": "HaCaT cells, IL-1β (10 ng/ml)+TNF-α (10 ng/ml), HY209 200, 400 and 800 ng/ml, 20 μM BzATP or ATP"}, "[4]": {"system": "TNF-α, RANTES, MCP-1, IL-1β and IL-8", "assay": "Cytokine measurement using cytometric bead array (CBA)", "format": "cell-based", "conditions": "1 μM; compared with INT777, crisaborole, MCC950, A740003, GW791343, tofacitinib, prednisolone", "description": "Specifically, cocktail beads were prepared by mixing fluorescent beads bound with antibodies to five types of inflammatory cytokines, TNF-α, RANTES, MCP-1, IL-1β and IL-8 to be confirmed. Next, 50 μl of the prepared cocktail beads, the prepared sample, and the standard sample were reacted at room temperature for 1 hour in a dark environment. […] As a positive control group, 1 μM of prednisolone, a corticosteroid was used. The reaction mixture was transferred to a new tube by the required amount so that the phycoerythrin (PE) detection reagent was 1 μl/sample, and washed with the washing buffer, the capture bead diluent was added so as to be contained by 50 μl per each sample through the calculation of volume, and the reaction was conducted at room temperature for 15 minutes in a dark environment. Next, 50 μl of the prepared PE detection reagent was added into the tube in which the cocktail beads, the prepared sample, and the standard sample were reacting, mixing was thoroughly performed, and then the reaction was further conducted for 2 hours. After all reactions were completed, 1 ml of washing buffer was added, centrifugation was performed at 200 g for 5 minutes, then the supernatant was removed, 300 μl of washing buffer was added, and then quantitative measurement of the 5 types of inflammatory cytokines was performed using a flow cytometer (CANTO II FACS, BD Biosciences, US)."}, "P2X7 receptor [5]": {"biological_target": "T1, P2X7 receptor (Mus musculus, UniProt Q9Z1M0)", "T1 construct": "endogenous in cells; host or cells: primary BMDM (bone marrow-derived macrophages)", "T1 sequence (Q80SS6 whole entry partner)": "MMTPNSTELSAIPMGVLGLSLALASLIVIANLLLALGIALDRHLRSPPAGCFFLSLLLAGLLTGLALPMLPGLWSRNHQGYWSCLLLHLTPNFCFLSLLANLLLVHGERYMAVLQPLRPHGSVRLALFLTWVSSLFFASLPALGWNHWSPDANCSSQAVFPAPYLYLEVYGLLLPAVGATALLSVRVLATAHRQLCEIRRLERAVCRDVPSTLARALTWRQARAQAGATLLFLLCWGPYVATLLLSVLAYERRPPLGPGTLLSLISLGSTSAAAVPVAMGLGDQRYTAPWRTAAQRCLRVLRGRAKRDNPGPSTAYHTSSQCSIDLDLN", "T1 sequence (Q9Z1M0 whole entry)": "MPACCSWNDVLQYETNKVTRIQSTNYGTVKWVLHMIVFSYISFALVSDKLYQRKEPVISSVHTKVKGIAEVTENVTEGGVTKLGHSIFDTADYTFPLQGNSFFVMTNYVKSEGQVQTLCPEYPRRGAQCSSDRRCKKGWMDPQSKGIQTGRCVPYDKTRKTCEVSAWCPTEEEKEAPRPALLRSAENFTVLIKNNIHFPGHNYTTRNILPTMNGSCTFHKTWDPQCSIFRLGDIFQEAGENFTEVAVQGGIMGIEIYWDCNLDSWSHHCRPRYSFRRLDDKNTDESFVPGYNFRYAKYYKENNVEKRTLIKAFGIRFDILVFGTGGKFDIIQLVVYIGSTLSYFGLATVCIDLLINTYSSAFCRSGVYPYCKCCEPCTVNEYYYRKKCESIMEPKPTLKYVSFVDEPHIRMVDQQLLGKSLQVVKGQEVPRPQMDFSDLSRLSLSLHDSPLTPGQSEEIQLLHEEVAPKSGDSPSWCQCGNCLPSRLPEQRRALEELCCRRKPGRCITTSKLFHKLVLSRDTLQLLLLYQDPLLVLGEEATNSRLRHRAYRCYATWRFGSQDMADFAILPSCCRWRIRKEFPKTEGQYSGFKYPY", "assay": "Ca++ mobilization by P2X7 receptor in macrophages", "format": "cell-based", "conditions": "BMDM cells, LPS (100 ng/ml)+HY209 (400 ng/ml) 1 hour, ATP (20 μM) or BzATP (40 μM)", "description": "Specifically, BMDMs were obtained from three normal (wild-type, WT), GPCR19 KO or P2X7 KO mice. Then, the obtained BMDMs were treated with 20 μM ATP, attached to a glass coverslip, and then incubated in a physiological external solution consisting of NaCl 138 mM, KCl 5.6 mM, MgCl2 2 mM, HEPES 10 mM and pH 7.4 glucose 10 mM with 2 μM Fluo-4/AM in a 37° C. incubator for 30 minutes to observe intracellular Ca^++ mobilization. After that, the BMDMs were transferred to an open perfusion chamber to remove residual Fluo-4/AM, and the fluorescence level was measured using a fluorescence microscope (Nikon, Tokyo, Japan) under the conditions of excitation 494 nm and emission 506 nm. […]\nAfter the treatment, Ca^++ mobilization measurement was started, and the cells were treated with ATP (20 μM) or BzATP (40 μM) in the presence of 2 mM CaCl2) and 0.5 mM MgCl2 50 seconds after the start of measurement. Intracellular Ca^++ mobilization was measured with […] using a fluorescence microscope in the same manner as in Example <2-1>, and graphed (FIG. 2D, left panels in first and second rows). After three independent experiments, the sum of the measured data was presented (FIG. 2D, right panels in first and second rows)."}, "NLRP3 inflammasome [6]": {"system": "NLRP3 inflammasome", "assay": "Inflammasomal components in HaCaT cells (immunostaining)", "format": "cell-based, human", "conditions": "TNF-α (20 ng/ml)+HY209 (400 ng/ml) 3 hours, then DNCB (5 μg/ml) 24 hours", "description": "as §1"}, "P2X7 receptor [7]": {"system": "P2X7 receptor", "assay": "Ca++ mobilization by P2X7 receptor in microglia", "format": "cell-based, mouse", "conditions": "BV2 cells, Aβ (2 μM)+HY209 (400 ng/ml) 1 hour, ATP (20 μM) or BzATP (40 μM)"}, "IL-1β [8]": {"system": "IL-1β", "assay": "IL-1β ELISA of HaCaT culture supernatant", "format": "cell-based, human", "conditions": "HaCaT cells", "description": "Thereafter, the IL-1β concentration was measured according to the manufacturer's procedure using the IL-113 ELISA kit (R&D Systems Minneapolis, MN, USA) (FIG. 3B)."}}}
{"smiles": "C[C@H](CCC(=O)NCCS(=O)(=O)O)[C@H]1CC[C@H]2[C@@H]3CC[C@@H]4C[C@H](O)CC[C@]4(C)[C@H]3C[C@H](O)[C@]12C", "note": "[HY209, sodium taurodeoxycholate]", "values": [{"measurement": "decrease of cumulative fluorescence value increased by BzATP", "setting": "P2X7", "value": 100, "unit": "%"}, {"measurement": "increase in the production of IL-1β", "setting": "IL-1β [1]; HY209 (400 ng/ml) after treatment with LPS+BzATP (posttreatment, 3 hours after LPS)", "value": "suppressed"}, {"measurement": "increase in the production of IL-1β", "setting": "IL-1β [1]; HY209 (400 ng/ml) before treatment with LPS+ATP (pretreatment, 1 hour before LPS)", "value": "suppressed"}, {"measurement": "increase in the production of IL-1β", "setting": "IL-1β [1]; LPS (10 ng/ml)+ATP (500 μm), HY209 0, 25, 100, 400 ng/ml", "value": "suppressed in a HY209 concentration-dependent manner"}, {"measurement": "increase in the production of IL-1β", "setting": "IL-1β [1]; LPS (10 ng/ml)+BzATP (300 μm), HY209 0, 25, 100, 400 ng/ml", "value": "suppressed in a HY209 concentration-dependent manner"}, {"measurement": "increase in hASC expression", "setting": "NLRP3 inflammasome [2]", "value": "suppressed"}, {"measurement": "increase in hNLRP3-ASC oligomerization", "setting": "NLRP3 inflammasome [2]", "value": "suppressed"}, {"measurement": "increase in hNLRP3 expression", "setting": "NLRP3 inflammasome [2]", "value": "suppressed"}, {"measurement": "Ca++ mobilization increased under the influence of IL-1β and TNF-α", "setting": "P2X7 receptor [3]", "value": "significantly decreases as the concentration of HY209 increases"}, {"measurement": "inhibitory effect on five types of inflammatory cytokines produced by the inflammasome stimulation signal", "setting": "[4]", "value": "superior"}, {"measurement": "Ca++ mobilization increased under the influence of LPS", "setting": "P2X7 receptor [5]", "value": "significantly decreases"}, {"measurement": "increase in hASC expression", "setting": "NLRP3 inflammasome [6]", "value": "suppressed"}, {"measurement": "increase in hNLRP3-ASC oligomerization", "setting": "NLRP3 inflammasome [6]", "value": "suppressed"}, {"measurement": "increase in hNLRP3 expression", "setting": "NLRP3 inflammasome [6]", "value": "suppressed"}, {"measurement": "Ca++ mobilization increased under the influence of Aβ", "setting": "P2X7 receptor [7]", "value": "significantly decreases"}, {"measurement": "increase in the production of IL-1β", "setting": "IL-1β [8]; TNF-α (20 ng/ml)+DNCB (5 μg/ml)+HY209 (400 ng/ml), 24 hours", "value": "suppressed"}, {"measurement": "increase in the production of IL-1β", "setting": "IL-1β [8]; TNF-α+DNCB+HY209 (400 ng/ml) 24 hours, then ATP 3 hours", "value": "suppressed"}]}
